# Experimental data from US20180044734A1, “COMPOSITION FOR DIAGNOSING SKIN DAMAGE CAUSED BY FINE DUST, AND COMPOSITION COMPRISING GALANGIN AS ACTIVE INGREDIENT” (AMOREPACIFIC CORPORATION, priority 2015, published 2018).
# Key:
# [1] = tested on: microdust-treated normal human keratinocytes; assay: Real-time RT-PCR of microdust-responsive genes in microdust-treated keratinocytes treated with galangin; type: cell-based; details: microdust 2.5 μm 12.5 μg in 1 mL, galangin 0.25-2 μM, 24 hours
# Description: The normal human keratinocytes cultured in Example 2 were treated 12.5 μg of the microdust with a particle diameter of 2.5 μm extracted in Example 1 in 1 mL of a cell culture medium and relative mRNA expression level was measured using the primers described in Tables 5 and 6 (TaqMan® primers, Applied Biosystems).
# The microdust-treated normal human keratinocytes or the normal human keratinocytes cultured in Example 2 but not treated with microdust were treated with galangin at different concentrations (0.25 μM, 0.5 μM, 1 μM and 2 μM). 24 hours later, the culture medium was removed and the cells were washed with 2 mL of phosphate-buffered saline (PBS). Then, RNA was isolated from the cells using TRIzol reagent (Invitrogen, Carlsbad, Calif., USA). For S100A8, S100A9, CYP1A1, CYP1B1, PI3, IL36G, IL1B, CCL27, IL8, NOX6, XDH, CXCL14, H19, CASP14 and CASP8, expression level was measured after treating with 0.25 μM galangin. The galangin was purchased commercially from Nanjing Chemlin Chemical (CAS No. 548-83-4). The isolated RNA was purified once again with Qiagen RNA kit Qiagen, Valencia, Calif.) and the quality of RNA was determined using Agilent 2100 BioAnalyzer (Agilent Technologies, Santa Clara, Calif., USA). cDNA synthesized from the RNA using SuperScript reverse transcriptase (RT) kit (Invitrogen, Carlsbad, Calif.) was quantitatively analyzed by real time-reverse transcription polymerase chain reaction (Q-RT-PCR) using the primers described in Tables 5 and 6. The change in gene expression pattern was evaluated in real time using TaqMan gene expression assay kit (Applied Biosystems, Foster City, Calif.). The Q-RT-PCR and real-time PCR were conducted in accordance with the standard protocols of Life Technologies, specifically, 95° C. for 20 seconds followed by 40 cycles of 95° C. for 3 seconds and 60° C. for 30 seconds.
# [2] = tested on: filaggrin, keratin 10, keratin 1, keratin 13 and keratin 15 mRNA in normal human keratinocytes; assay: Real-time PCR of gene expression in normal keratinocytes upon treatment with galangin; type: cell-based; details: cells not treated with microdust; galangin 0, 0.5, 1, 2 μM, 24 hours
# Description: After treating the normal human keratinocytes cultured in Example 2 with galangin at different concentrations (0 μM, 0.5 μM, 1 μM and 2 μM), the relative mRNA expression level of filaggrin, keratin 10, keratin 1, keratin 13 and keratin 15 was measured.
# 24 hours after the treatment with galangin, the culture medium was removed and the cells were washed with 2 mL of phosphate-buffered saline (PBS). Then, RNA was isolated from the cells using TRIzol reagent (Invitrogen, Carlsbad, Calif., USA).
# Subsequently, the change in gene expression was evaluated by real-time PCR in the same manner as in Example 5. For filaggrin, TaqMan® Hs00856927_g1 was used as the primer.
# [3] = tested on: normal human keratinocytes; assay: Differentiation of keratinocytes under optical microscope; type: cell-based; details: cells not treated with microdust; galangin 0, 1, 2 μM, 24 hours
# Description: The normal human keratinocytes cultured in Example 2 were treated with galangin at different concentrations (0 μM, 1 μM and 2 μM). 24 hours later, the culture medium was removed and the degree of differentiation of the keratinocytes was observed under an optical microscope (Olympus IX71, x40 and x200).
# [4] = tested on: filaggrin protein; assay: Filaggrin protein expression by blotting with filaggrin antibody; type: cell-based, human; details: galangin 0, 0.5, 1, 2 μM, 24 hours; normalized to β-actin
# Description: The normal human keratinocytes cultured in Example 2 were treated with galangin at different concentrations (0 μM, 0.5 μM, 1 μM and 2 μM). 24 hours later, the culture medium was removed and the cells were washed with 2 mL of phosphate-buffered saline (PBS). After adding cell lysis buffer and vortexing, proteins were quantified from the obtained supernatant. The proteins obtained from the epidermis of normal skin and dry skin were loaded on SDS gel and then blotted using the filaggrin antibody (Covance, France). The quantification result was normalized to that of β-actin (Sigma, USA).
smiles,measurement,setting,value
O=c1c(O)c(-c2ccccc2)oc2cc(O)cc(O)c12 [galangin],expression of genes whose expression is increased in skin cells stimulated by microdust,[1]; FIGS. 2a-2k,decreased expression
same,expression of genes increased or decreased in skin cells stimulated by microdust,[1]; FIGS. 2 and 3,returned to the normal level
same,expression of genes whose expression is decreased in skin cells stimulated by microdust,[1]; FIGS. 3a-3k,increased expression
same,relative mRNA expression level of filaggrin,[2],increased expression with increasing galangin concentration
same,relative mRNA expression level of keratin 1,[2],increased expression with increasing galangin concentration
same,relative mRNA expression level of keratin 10,[2],increased expression with increasing galangin concentration
same,relative mRNA expression level of keratin 13,[2],increased expression with increasing galangin concentration
same,relative mRNA expression level of keratin 15,[2],increased expression with increasing galangin concentration
same,degree of differentiation of the keratinocytes,[3],active differentiation with increasing galangin concentration
same,expression of filaggrin protein,[4],increased with increasing galangin concentration
